The record followed here is patent publication US20120208882A1, “Organic Compounds” (priority 2005, published 2012).

Each structure is given as a SMILES string. Counter-ions that a name gives are not always drawn. Like-named read-outs stand apart in the source and are kept apart here.

In assay [1] the test system is Guinea pig tracheal potential difference. The assay is described as follows: Tracheal potential difference (in vivo). The note with it: for ED50: Cavia porcellus, inhaled or nasal, i.t., read-out: GPig tracheal PD in vivo (ED50). On the procedure:
Biochemical assays: Recombinant human prostasin and matriptase and guinea pig prostasin are generated according to methods described in Shipway et al., Biochemical and Biophysical Research Communications 2004; 324(2):953-63). The recombinant enzymes are incubated in an electrolyte buffer test compounds or vehicle in a suitable multiple well assay plate such as a 96 or 384 well plate. At a defined time after the mixing of enzyme with compound. Or vehicle, a suitable fluorescent peptide substrate is added to the assay mixture. As substrate becomes cleaved by the active enzyme; fluorescence (measured using a suitable fluorescence plate reader) increases and the rate of turnover of substrate (i.e. enzyme activity) can be quantified and thus the inhibitory effect of any test compound. The efficacy of test compounds is expressed as the concentration that induces a 50% attenuation in the enzyme activity (Ki). Epithelial ion transport: Human bronchial epithelial cells are cultured according to methods described in Danahay et al., American Journal of Physiology Lung Cell Molecular Physiology 2002; 282(2):L226-36). When suitably differentiated (days 14-21 after establishing an apical-air interface) epithelial cells are treated with either vehicle, aprotinin (200 μg/ml) or test compound for 90 minutes. Epithelia are then, placed into Ussing Chambers as described in Danahay et al., American Journal of Physiology Lung Cell Molecular Physiology 2002; 282(2):L226-36) maintaining the concentration of vehicle, aprotinin or test compound on the apical side of the epithelia. Short circuit current (ISC) is then measured by voltage clamping the epithelia to zero millivolts. The amiloride-sensitive ISC is then measured by the addition of amiloride (10 μM) to the apical surface of the epithelia. The potency of the test compound is expressed as the concentration inducing a 50% inhibition of the total aprotinin-sensitive component of the amiloride-sensitive ISC. Tracheal potential difference (in vivo): Guinea pigs are anaesthetized using a short acting inhalation anaesthesia such as halothane and N20. Whilst under short acting anaesthesia an oral gavage needle is inserted into the trachea via the oropharangeal route. Once inside the trachea, a small volume (50-200 μl) of vehicle or test compound, in a suitable aqueous-based diluent, is instilled into the airways. Animals then recover and become fully ambulatory. Alternatively test compounds can be administered to animals using aerosol or dry powder dosing. At a defined time after dosing, the animals are surgically anaesthetized using a suitable anaesthesia such as ketamine and xylazine. The trachea is then exposed and a plastic agar bridge electrode is inserted into the tracheal lumen. A reference electrode is also inserted into the layers, of muscle in the animal's neck. The tracheal potential difference, is then measured using a suitable high impedance voltmeter as described in Takahashi et al., Toxicol Appl Pharmacol. 1995; 131(1):31-6. The potency of the test compound is expressed as the dose inducing a 50% reduction in the sensitive-component of the tracheal potential difference.

The target in the next assay is T1, rh-prostasin (Homo sapiens, UniProt Q16651).
T1 construct: made in house
The assay is described as follows: Biochemical assay, recombinant human prostasin, fluorescent peptide substrate. The procedure:
(§1) Biochemical assays: Recombinant human prostasin and matriptase and guinea pig prostasin are generated according to methods described in Shipway et al., Biochemical and Biophysical Research Communications 2004; 324(2):953-63). The recombinant enzymes are incubated in an electrolyte buffer test compounds or vehicle in a suitable multiple well assay plate such as a 96 or 384 well plate. At a defined time after the mixing of enzyme with compound. Or vehicle, a suitable fluorescent peptide substrate is added to the assay mixture. As substrate becomes cleaved by the active enzyme; fluorescence (measured using a suitable fluorescence plate reader) increases and the rate of turnover of substrate (i.e. enzyme activity) can be quantified and thus the inhibitory effect of any test compound. The efficacy of test compounds is expressed as the concentration that induces a 50% attenuation in the enzyme activity (Ki). […] Short circuit current (ISC) is then measured by voltage clamping the epithelia to zero millivolts. The amiloride-sensitive ISC is then measured by the addition of amiloride (10 μM) to the apical surface of the epithelia. […] The tracheal potential difference, is then measured using a suitable high impedance voltmeter as described in Takahashi et al., Toxicol Appl Pharmacol. 1995; 131(1):31-6. […]

For assay [2], the system named is Human bronchial epithelial cells (amiloride-sensitive, ENaC-mediated short circuit current). The assay is described as follows: Epithelial ion transport: amiloride-sensitive short circuit current in Ussing chambers. Format: cell-based. Particulars: Epithelial cell, 1.5 h, 50% inhibition of aprotinin-sensitive component of amiloride-sensitive ISC, 90 minutes treatment, read-out: HBEC (IC50). On the procedure:
as §1

In a further assay the target is rGPig-prostasin (Cavia porcellus, UniProt A0A286XIW9). Description: Biochemical assay, recombinant guinea pig prostasin, fluorescent peptide substrate. The procedure: as §1
The target in the next assay is T2, rh-matriptase (Homo sapiens, UniProt Q9Y5Y6).
T2 construct: made in house
T2 sequence (Q9Y5Y6 1-855): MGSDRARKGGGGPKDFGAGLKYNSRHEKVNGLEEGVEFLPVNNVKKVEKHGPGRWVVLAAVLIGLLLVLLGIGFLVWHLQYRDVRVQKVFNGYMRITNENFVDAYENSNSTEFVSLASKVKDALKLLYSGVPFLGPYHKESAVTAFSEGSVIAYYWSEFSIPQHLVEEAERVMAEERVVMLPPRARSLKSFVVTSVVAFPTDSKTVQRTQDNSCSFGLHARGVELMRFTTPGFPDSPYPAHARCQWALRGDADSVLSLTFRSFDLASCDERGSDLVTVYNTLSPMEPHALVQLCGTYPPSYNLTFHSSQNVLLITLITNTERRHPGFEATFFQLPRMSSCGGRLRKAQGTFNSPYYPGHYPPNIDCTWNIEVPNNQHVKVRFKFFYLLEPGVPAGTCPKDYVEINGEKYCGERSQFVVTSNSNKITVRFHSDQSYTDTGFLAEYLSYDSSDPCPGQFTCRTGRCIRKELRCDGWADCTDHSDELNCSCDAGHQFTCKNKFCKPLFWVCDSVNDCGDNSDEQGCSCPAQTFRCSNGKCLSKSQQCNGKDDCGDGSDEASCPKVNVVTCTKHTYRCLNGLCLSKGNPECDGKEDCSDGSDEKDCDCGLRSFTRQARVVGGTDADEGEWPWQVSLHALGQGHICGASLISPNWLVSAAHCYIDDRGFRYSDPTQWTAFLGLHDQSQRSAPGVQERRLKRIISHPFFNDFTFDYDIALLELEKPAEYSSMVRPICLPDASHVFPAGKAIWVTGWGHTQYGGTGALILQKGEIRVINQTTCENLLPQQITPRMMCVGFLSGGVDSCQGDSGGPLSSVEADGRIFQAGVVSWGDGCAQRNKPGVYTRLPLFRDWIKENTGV
Description: Biochemical assay, recombinant human matriptase, fluorescent peptide substrate. On the procedure: as §1

Chain of rGPig-prostasin (A0A286XIW9 1-343): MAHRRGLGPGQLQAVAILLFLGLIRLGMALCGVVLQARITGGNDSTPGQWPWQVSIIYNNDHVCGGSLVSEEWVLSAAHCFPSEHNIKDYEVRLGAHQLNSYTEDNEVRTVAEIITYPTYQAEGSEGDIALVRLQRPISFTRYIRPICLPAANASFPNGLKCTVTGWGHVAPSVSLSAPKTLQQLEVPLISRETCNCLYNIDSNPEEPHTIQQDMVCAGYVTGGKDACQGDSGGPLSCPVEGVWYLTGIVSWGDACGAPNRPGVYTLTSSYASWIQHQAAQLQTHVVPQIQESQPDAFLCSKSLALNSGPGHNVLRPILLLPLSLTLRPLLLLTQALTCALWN
T1 sequence (Q16651 33-343): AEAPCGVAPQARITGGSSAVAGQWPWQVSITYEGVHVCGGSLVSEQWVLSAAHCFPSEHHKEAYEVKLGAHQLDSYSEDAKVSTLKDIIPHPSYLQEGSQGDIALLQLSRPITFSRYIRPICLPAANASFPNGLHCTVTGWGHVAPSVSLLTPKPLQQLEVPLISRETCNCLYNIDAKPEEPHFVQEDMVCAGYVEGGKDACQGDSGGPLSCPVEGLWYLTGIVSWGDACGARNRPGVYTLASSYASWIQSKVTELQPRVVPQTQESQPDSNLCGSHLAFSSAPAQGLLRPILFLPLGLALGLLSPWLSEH

By ED50 is commonly meant the dose that gives a 50% effect, or the effect in half of the subjects. Broadly, the Ki is a dissociation constant, usually derived from enzyme kinetics or from competition with a known ligand. By IC50 is commonly meant the midpoint of a concentration-inhibition curve. Regarding `CN(C)C(=O)COC(=O)Cc1ccc(OC(=O)c2ccc(NC(=N)N)cc2)cc1` [Camostat mesylate, N,N-dimethyl-carbamoylmethyl-p-(p-guanidinobenzoyloxy)phenylacetate], the “Mean absolute tracheal potential difference (± s.e. mean)” value in assay [1] (2 hr, 1 μg/kg intra-tracheal) was −10.0 ± 0.7; in assay [1] (2 hr, 3 μg/kg intra-tracheal), −7.3 ± 0.5; in assay [1] (2 hr, 10 μg/kg intra-tracheal), −6.4 ± 0.5; in assay [1] (2 hr, 30 μg/kg intra-tracheal), −5.3 ± 0.3; in assay [1] (2 hr, 100 μg/kg intra-tracheal), −4.7 ± 0.5; in assay [1] (5 hr, 3 μg/kg intra-tracheal) it was −10.8 ± 1.0. Also, the “Mean absolute tracheal potential difference (± s.e. mean)” value in assay [1] (5 hr, 10 μg/kg intra-tracheal) is given as −9.7 ± 1.5; in assay [1] (5 hr, 30 μg/kg intra-tracheal), −7.5 ± 0.4; in assay [1] (5 hr, 100 μg/kg intra-tracheal) it was −6.5 ± 0.3; in assay [1] (5 hr, 300 μg/kg intra-tracheal), −5.2 ± 0.3; in assay [1] (5 hr, 1000 μg/kg intra-tracheal), −5.7 ± 0.4. Further, the ED50 was determined as 0.0033 mg/kg in assay [1] (2 hr after dosing) and 0.026 mg/kg in assay [1] (5 hr after dosing). In addition, the Ki at rh-prostasin was 429 nM; at rGPig-prostasin, 98 nM; on rh-matriptase, 5 nM. Also, the IC50 in assay [2] worked out at 50 nM.
